Assay results: ChEMBL document CHEMBL1155858, “Derivatives of (3S)-N-(biphenyl-2-ylmethyl)pyrrolidin-3-amine as selective noradrenaline reuptake inhibitors: Reducing P-gp mediated efflux by modulation of H-bond acceptor capacity” (Bioorg Med Chem Lett, 2008)

Assays:
[1] = target: Sodium-dependent dopamine transporter (Homo sapiens, UniProt Q01959); assay: Inhibition of [3H]dopamine reuptake at human DAT expressed in HEK293 cells by SPA; assay type: cell-based
[2] = target: Sodium-dependent serotonin transporter (Homo sapiens, UniProt P31645); assay: Inhibition of [3H]citalopram uptake at human 5HTT expressed in HEK293 cells by SPA; assay type: cell-based
[3] = target: Sodium-dependent noradrenaline transporter (Homo sapiens, UniProt P23975); assay: Inhibition of [3H]nisoxetine reuptake at human NET expressed in HEK293 cells by SPA; assay type: cell-based
Cytochrome P450 2D6 = Cytochrome P450 2D6 (Homo sapiens, UniProt P10635); assay: Inhibition of CYP2D6; assay type: ADME
[4] = Metabolic stability in human liver microsomes assessed as intrinsic clearance; assay type: ADME, Microsome
[5] = Apparent permeability from basolateral to apical side of the MDCK cells expressing MDR1 gene; assay type: ADME, cell-based, Canis lupus familiaris; conditions: dog
[6] = Ratio of permeability from basolateral to apical side over apical to basolateral side of MDCK cells expressing MDR1 gene; conditions: dog
[7] = Apparent permeability from apical to basolateral side of the MDCK cells expressing MDR1 gene; assay type: ADME, cell-based, Canis lupus familiaris; conditions: dog
Liver microsomes = assay: Metabolic stability in human liver microsomes; assay type: ADME, Microsome
Cytochrome P450 3A4 = Cytochrome P450 3A4 (Homo sapiens, UniProt P08684); assay: Inhibition of CYP3A4; assay type: ADME
[8] = Dissociation constant, pKa of the compound; assay type: physicochemical
[9] = target: Voltage-gated inwardly rectifying potassium channel KCNH2 (Homo sapiens, UniProt Q12809); assay: Displacement of [3H]dofetilide from human ERG channel
Hepatocyte = assay: Metabolic stability in human hepatocytes assessed as intrinsic clearance; assay type: ADME, cell-based, Liver
[10] = Inhibition of sodium channel site 2
[11] = Distribution coefficient, log D at pH 7.4; assay type: physicochemical; conditions: octanol/water
Homo sapiens [12] = organism: Homo sapiens; assay: Selectivity for human NET over human DAT
Cytochrome P450 2C9 = Cytochrome P450 2C9 (Homo sapiens, UniProt P11712); assay: Inhibition of CYP2C9; assay type: ADME
Homo sapiens [13] = organism: Homo sapiens; assay: Selectivity for human NET over human SERT
[14] = Inhibition of L type calcium channel
Cytochrome P450 1A2 = target: T1, Cytochrome P450 1A2 (Homo sapiens, UniProt P05177); assay: Inhibition of CYP1A2; assay type: ADME
T1 sequence (P05177 whole entry): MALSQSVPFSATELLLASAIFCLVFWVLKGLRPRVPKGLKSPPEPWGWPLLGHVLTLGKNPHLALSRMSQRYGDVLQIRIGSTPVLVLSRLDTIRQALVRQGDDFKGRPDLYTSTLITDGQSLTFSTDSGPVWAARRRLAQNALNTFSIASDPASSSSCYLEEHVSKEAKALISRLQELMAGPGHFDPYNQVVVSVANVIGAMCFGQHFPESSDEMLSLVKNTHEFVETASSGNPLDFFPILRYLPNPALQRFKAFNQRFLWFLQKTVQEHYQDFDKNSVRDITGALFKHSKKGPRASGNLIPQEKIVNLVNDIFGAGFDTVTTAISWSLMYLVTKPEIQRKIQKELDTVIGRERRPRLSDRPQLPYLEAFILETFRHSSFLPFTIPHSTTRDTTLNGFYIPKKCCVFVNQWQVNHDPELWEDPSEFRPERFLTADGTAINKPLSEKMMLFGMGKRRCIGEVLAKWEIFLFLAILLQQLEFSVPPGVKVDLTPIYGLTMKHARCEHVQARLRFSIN

Sodium-dependent noradrenaline transporter, sequence (P23975 whole entry): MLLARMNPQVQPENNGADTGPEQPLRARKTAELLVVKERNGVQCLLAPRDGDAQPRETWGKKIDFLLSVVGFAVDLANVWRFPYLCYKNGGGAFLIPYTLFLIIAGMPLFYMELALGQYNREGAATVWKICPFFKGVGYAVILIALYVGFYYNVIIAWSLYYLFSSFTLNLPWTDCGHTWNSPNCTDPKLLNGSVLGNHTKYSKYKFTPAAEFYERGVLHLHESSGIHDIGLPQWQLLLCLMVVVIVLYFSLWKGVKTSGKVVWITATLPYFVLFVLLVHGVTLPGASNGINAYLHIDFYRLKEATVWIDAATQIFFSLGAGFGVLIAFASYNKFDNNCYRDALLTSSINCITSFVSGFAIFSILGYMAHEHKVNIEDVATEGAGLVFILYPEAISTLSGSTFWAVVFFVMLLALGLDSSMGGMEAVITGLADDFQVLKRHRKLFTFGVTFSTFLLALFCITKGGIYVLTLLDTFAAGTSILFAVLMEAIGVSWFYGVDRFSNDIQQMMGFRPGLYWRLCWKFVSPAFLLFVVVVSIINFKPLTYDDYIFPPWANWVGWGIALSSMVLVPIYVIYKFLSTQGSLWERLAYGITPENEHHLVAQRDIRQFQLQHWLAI
Cytochrome P450 2D6, sequence (P10635 whole entry): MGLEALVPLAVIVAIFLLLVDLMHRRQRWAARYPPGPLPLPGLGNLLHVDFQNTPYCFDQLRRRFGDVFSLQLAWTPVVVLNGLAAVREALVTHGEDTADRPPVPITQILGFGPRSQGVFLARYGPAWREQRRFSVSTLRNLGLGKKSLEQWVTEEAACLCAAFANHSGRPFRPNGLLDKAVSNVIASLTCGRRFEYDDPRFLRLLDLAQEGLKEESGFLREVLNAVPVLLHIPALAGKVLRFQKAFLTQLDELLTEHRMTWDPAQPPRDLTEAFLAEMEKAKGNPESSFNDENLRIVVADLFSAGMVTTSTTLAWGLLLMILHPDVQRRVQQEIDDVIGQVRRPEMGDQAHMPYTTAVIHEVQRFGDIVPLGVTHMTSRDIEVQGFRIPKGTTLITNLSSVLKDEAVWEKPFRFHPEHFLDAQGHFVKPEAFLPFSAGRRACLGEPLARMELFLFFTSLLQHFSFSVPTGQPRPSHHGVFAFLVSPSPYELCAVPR
Sodium-dependent serotonin transporter, sequence (P31645 whole entry): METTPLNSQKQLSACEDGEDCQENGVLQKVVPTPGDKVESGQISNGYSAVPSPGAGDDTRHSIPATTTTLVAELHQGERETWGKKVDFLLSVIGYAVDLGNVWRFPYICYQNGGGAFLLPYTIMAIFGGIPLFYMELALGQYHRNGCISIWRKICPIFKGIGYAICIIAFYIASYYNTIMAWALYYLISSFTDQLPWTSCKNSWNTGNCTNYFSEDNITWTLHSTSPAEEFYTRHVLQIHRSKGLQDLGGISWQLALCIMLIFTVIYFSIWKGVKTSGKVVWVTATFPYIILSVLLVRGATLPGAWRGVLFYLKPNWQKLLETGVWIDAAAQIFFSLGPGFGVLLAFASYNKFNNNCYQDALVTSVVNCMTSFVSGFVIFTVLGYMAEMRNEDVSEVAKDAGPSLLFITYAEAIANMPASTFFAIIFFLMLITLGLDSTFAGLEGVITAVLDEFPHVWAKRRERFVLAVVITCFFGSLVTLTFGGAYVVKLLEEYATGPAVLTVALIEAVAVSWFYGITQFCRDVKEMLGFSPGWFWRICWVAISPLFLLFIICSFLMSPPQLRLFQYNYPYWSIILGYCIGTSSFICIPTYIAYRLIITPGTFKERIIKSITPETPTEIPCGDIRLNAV
Sodium-dependent dopamine transporter, sequence (Q01959 whole entry): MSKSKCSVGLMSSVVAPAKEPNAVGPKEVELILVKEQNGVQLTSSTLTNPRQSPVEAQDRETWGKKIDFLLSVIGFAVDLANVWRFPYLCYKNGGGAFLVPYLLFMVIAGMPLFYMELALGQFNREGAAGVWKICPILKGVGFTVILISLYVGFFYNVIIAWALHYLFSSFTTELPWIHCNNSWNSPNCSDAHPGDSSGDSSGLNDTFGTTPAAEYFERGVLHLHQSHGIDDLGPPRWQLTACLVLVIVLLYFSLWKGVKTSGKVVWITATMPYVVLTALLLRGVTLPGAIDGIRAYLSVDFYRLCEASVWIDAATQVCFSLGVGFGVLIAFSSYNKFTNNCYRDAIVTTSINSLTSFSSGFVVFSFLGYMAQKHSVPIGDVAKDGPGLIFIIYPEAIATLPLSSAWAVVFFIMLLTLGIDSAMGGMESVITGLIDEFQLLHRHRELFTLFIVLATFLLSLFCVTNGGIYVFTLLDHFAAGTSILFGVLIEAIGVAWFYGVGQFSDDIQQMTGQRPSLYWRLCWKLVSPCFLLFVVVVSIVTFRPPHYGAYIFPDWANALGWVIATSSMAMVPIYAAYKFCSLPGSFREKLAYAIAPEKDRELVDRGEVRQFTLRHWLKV
Voltage-gated inwardly rectifying potassium channel KCNH2, sequence (Q12809 whole entry): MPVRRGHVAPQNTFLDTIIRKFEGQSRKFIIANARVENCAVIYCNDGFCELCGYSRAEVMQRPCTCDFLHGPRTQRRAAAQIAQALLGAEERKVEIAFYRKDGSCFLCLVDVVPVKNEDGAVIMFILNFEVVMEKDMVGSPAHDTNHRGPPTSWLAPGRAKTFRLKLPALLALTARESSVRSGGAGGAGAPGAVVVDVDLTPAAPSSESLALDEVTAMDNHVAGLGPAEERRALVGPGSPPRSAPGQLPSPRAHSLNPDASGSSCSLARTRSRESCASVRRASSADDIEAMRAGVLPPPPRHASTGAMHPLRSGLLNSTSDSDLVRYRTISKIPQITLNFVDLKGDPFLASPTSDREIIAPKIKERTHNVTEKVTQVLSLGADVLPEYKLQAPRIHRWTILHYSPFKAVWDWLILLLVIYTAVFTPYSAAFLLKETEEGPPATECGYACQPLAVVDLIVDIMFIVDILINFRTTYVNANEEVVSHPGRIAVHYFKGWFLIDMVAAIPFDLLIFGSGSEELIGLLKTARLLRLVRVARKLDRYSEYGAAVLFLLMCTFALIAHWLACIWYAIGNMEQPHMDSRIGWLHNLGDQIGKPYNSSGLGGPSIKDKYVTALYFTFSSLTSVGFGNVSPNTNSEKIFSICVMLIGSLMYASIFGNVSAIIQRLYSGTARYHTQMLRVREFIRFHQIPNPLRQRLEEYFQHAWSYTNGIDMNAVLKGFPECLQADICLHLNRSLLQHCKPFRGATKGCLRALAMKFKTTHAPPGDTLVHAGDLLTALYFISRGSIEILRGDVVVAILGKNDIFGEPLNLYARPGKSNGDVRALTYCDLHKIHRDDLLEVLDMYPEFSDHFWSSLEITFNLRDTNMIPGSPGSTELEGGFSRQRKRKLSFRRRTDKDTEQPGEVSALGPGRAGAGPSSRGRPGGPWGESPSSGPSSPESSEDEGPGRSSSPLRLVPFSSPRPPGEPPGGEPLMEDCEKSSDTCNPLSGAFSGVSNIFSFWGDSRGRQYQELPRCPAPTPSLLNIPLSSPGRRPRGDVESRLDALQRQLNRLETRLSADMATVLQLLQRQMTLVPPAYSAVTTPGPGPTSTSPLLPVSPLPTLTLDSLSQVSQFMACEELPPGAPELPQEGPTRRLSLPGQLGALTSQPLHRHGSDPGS
Cytochrome P450 2C9, sequence (P11712 whole entry): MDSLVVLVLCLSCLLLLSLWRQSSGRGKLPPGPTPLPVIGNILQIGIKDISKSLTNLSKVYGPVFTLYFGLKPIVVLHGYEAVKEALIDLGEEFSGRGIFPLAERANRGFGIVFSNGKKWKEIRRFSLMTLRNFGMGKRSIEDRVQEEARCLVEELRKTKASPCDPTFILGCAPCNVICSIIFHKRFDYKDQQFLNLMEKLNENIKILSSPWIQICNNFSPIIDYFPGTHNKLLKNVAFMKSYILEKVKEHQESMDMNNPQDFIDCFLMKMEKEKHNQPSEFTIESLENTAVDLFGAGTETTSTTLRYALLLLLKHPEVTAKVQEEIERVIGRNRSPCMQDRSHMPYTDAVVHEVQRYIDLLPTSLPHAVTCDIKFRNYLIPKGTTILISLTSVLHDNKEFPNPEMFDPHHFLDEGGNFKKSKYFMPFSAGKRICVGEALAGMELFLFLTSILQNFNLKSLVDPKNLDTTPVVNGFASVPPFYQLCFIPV
Cytochrome P450 3A4, sequence (P08684 whole entry): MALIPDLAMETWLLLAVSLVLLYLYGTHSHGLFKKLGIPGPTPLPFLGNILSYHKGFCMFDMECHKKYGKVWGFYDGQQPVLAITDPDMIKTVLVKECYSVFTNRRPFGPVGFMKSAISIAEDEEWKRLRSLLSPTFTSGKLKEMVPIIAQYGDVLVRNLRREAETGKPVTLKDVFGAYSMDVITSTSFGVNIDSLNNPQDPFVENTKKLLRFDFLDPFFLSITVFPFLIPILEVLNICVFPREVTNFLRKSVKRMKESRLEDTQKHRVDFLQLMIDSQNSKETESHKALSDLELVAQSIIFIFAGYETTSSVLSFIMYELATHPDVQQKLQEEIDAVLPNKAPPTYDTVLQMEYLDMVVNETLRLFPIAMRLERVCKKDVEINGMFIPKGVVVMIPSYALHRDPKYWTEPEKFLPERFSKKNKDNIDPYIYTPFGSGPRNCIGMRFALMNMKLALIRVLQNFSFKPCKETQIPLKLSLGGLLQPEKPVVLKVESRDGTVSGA

Compound | Ki [1] | Ki [2] | Ki [3] | microsomal CLint [4] | other results
CSc1ccccc1CN(C(=O)C(C)C)[C@H]1CCNC1 | 1.38 µM | 0.05 µM | 0.065 µM | – | –
Clc1cccc(CN(C2CCOCC2)[C@H]2CCNC2)c1Cl | – | – | – | – | t1/2 (Liver microsomes): 1.67 h
CC(C)C(=O)N(Cc1ccccc1C1CC1)[C@H]1CCNC1 | 2.92 µM | 0.124 µM | 0.074 µM | – | –
CCOC(=O)N(Cc1ccccc1SC)[C@H]1CCNC1 | – | 0.353 µM | 0.089 µM | – | –
c1ccc(-c2ccccc2CN[C@H]2CCNC2)cc1 | 2.47 µM | 1.07 µM | 0.271 µM | – | –
CC(=O)N(Cc1ccccc1-c1ccccc1)[C@H]1CCNC1 | – | 5.81 µM | 0.124 µM | < 7 µL/min/mg | –
CS(=O)(=O)N(Cc1ccccc1C(F)(F)F)[C@H]1CCNC1 | 2.89 µM | 2.89 µM | 0.086 µM | – | –
O=CN(Cc1ccccc1-c1ccccc1)[C@H]1CCNC1 | 2.13 µM | 0.869 µM | 0.118 µM | – | –
CN1CC[C@H](N(Cc2ccccc2-c2ccccc2)S(C)(=O)=O)C1 | – | > 10 µM | 0.748 µM | – | –
CCS(=O)(=O)N(Cc1ccccc1-c1ccccc1)[C@H]1CCN(C)C1 | – | > 10 µM | 0.466 µM | – | –

Continued, in another order:

Ki [1] | Ki [2] | Ki [3] | microsomal CLint [4] | Compound | other results
2.97 µM | 5.01 µM | 0.053 µM | – | CN(C)C(=O)N(Cc1ccccc1-c1ccccc1)[C@H]1CCNC1 | –
1.9 µM | 0.444 µM | 0.023 µM | 21 µL/min/mg | CCOC(=O)N(Cc1ccccc1Oc1ccccc1)[C@H]1CCNC1 | IC50 (Cytochrome P450 2D6): 0.42 µM
4.19 µM | – | 0.027 µM | – | O=C(N1CCCC1)N(Cc1ccccc1-c1ccccc1)[C@H]1CCNC1 | Papp B→A [5]: 530 nm/s; efflux ratio [6]: 26; Papp A→B [7]: 20 nm/s
– | 0.133 µM | 0.063 µM | < 7 µL/min/mg | CC(C)C(=O)N(Cc1ccccc1C(F)(F)F)[C@H]1CCNC1 | –
– | 2.68 µM | 0.03 µM | < 7 µL/min/mg | CCC(=O)N(Cc1ccccc1-c1ccccc1)[C@H]1CCNC1 | –
2.7 µM | 4.69 µM | 0.01 µM | 20 µL/min/mg | CC(C)S(=O)(=O)N(Cc1ccccc1-c1ccccc1)[C@H]1CCNC1 | IC50 (Cytochrome P450 2D6): 0.35 µM
3.34 µM | 0.764 µM | 0.049 µM | – | CCOC(=O)N(Cc1ccccc1C(C)C)[C@H]1CCNC1 | –
2.67 µM | 4.12 µM | 0.005 µM | 7 µL/min/mg | CS(=O)(=O)N(Cc1ccccc1-c1ccccc1)[C@H]1CCNC1 | Papp B→A [5]: 510 nm/s; efflux ratio [6]: 5.1; IC50 (Cytochrome P450 3A4): > 3 µM; IC50 (Cytochrome P450 2D6): 3.1 µM; pKa [8]: 8.9; Ki [9]: > 2.7 µM; CL (Hepatocyte): < 5 µL/min/mg; Ki [10]: 1.9 µM; logD [11]: 0.6; Ratio Ki (Homo sapiens [12]): > 100; IC50 (Cytochrome P450 2C9): > 3 µM; Ratio Ki (Homo sapiens [13]): > 100; Ki [14]: 1.9 µM; IC50 (Cytochrome P450 1A2): > 3 µM; Papp A→B [7]: 100 nm/s
